Data reported in patent US7893299B2, “Interleukin-1 and tumor necrosis factor-αmodulators; syntheses of such modulators and methods of using such modulators” (Nereus Pharmaceuticals, Inc., priority 2005, dated 2011).
Where two headings read alike, the source gives them in different places.

Key:
HT-29 (Colon) = experiment: 48 hr cytotoxicity, HT-29; assay type: cell-based, human
Method: Human colon adenocarcinoma HT-29 (ATCC# HTB-38), prostate adenocarcinoma PC-3 (ATCC# CRL-1435), breast adenocarcinoma MDA-MB231 (ATCC# HTB-26), Multiple Myeloma RPMI 8226 (ATCC# CCL-155) and U266 (ATCC # TIB-196) cell lines and human normal fibroblast CCD-27sk (ATCC# CRL-1475) were all purchased from ATCC (Manassas, Va.). The cells were maintained in their respective ATCC recommended culture media at 37° C., 5% CO2 and 95% humidified air.
The cytotoxicity assays were performed by seeding individual cell lines at appropriate density in the 96 well flat-bottomed plates and allowed to attach for 24 hours at 37° C., 5% CO2 and 95% humidified air (RPMI 8226 and U266 cells were plated in 96 well plates on the day of compound addition). Serially diluted NPI-1387 was added in triplicate to cells at concentrations ranging from 160 nM to 20 μM. Final concentration of 0.25% (v/v) DMSO was used as the vehicle control. Cell viability was assessed 48 hours later by measuring the fluorescence of the reduction product of Resazurin by a Fusion microplate fluorometer (PerkinElmer) with λex=535 nm and λem=590 nm filters. The IC50 values (the drug concentration at which 50% of the maximal observed cytotoxicity is established) were calculated in XLFit 3.0 or XLFit 4.0 (ID Business Solutions Ltd) using a sigmoidal dose response model.

PC-3 colony formation = experiment: PC-3 clonogenicity assay; assay type: cell-based
Method: PC-3 cells in 10 cm tissue culture dishes (200 cells/dish) were treated with 5 μM, 10 μM and 20 μM NPI-1387 for 0.5-24 hours in triplicates. DMSO was used as vehicle control. After each time point of drug treatment, the medium was removed, the dishes were washed two times with Dulbecco's phosphate buffered saline (DPBS), and supplied with fresh medium. Cells were cultured for 10 days with the medium replenished every 3 days. On the 10th day, dishes were washed with cold DPBS, fixed for 10 minutes in ice-cold 100% methanol at 4° C., and the colonies were stained with 0.5% (w/v) crystal violet. Colonies were counted manually, and the results expressed as % of colonies in relation to their respective vehicle control.

IRAK1 = assay type: cell-based; conditions: LPS-stimulated RAW264.7; 1, 5, 10 and 20 μM
Method: (§1) Cells were treated with 1, 5, 10 and 20 μM of NPI-1387 for 1 hour and then stimulated with 10 ng/ml LPS for 10 or 30 min. To determine the phosphorylation of IRAK1, whole cell extracts were prepared in RIPA buffer [0.9% NaCl, 50 mM Tris-HCl (pH7.4), 1% Triton X-100, 1 mM EDTA, 0.25% Na-deoxycholic acid, 0.1% SDS, 1 mM Na3VO4, 1 mM NaF and protease inhibitors]. […] Following electro-transfer, the membranes were blocked in Blotto (5%, w/v) non-fat milk in 1×TBST [20 mM Tris, 0.8% (w/v) NaCl, pH 7.6, 0.1% (v/v) Tween 20]. Membranes were then incubated with primary antibodies against IRAK1 (Santa Cruz Biotechnology), total IκBα (Cell Signaling Technology), phospho-IκBα (Cell Signaling Technology) and Tubulin (Lab Vision) in Blotto for 2 hours. The membranes were washed in TBST and (where necessary) incubated with the HRP-conjugated secondary antibody in Blotto for 1 hour before washing extensively with TBST. HRP activity was visualized by utilizing either SuperSignal West Pico or Dura chemiluminescent detection systems (Pierce Biotechnology). […] The protein samples were separated by 10% NuPAGE MES precast gels (Invitrogen) and the extent of GST-IκBα phosphorylation was evaluated by western blotting using the antibody against phospho-IκBα (Cell Signaling Technology).

IKKα = IKKα (Mus musculus, UniProt Q60680); assay type: cell-based; conditions: LPS-stimulated RAW264.7; 1, 5, 10 and 20 μM
Method: as §1

IκBα phosphorylation = experiment: phosphorylation of IκBα induced by Toll-like receptor ligands in RPMI 8226 cells; assay type: cell-based; conditions: 13 μM
Method: One ml/well of 2×10^6/ml RPMI 8226 cells (#CCL-155C, American Type Culture Collection) were seeded in 6-well plate in LGM-3 medium and cultured for overnight at 37° C., 5% CO2 and 95% humidified air. Formula (IIB-A1) was added to RPMI 8226 cells at the final concentration of 13 μM for 1 hr. DMSO was used as a control. Cells were then stimulated with 50 ng/ml LPS, 2 μg/ml Lipoteichoic acid (LTA) and CpG DNA for various length of time. At the end of each period of stimulation, cells were harvested by centrifugation and cell pellets were washed once in ice-cold 1× Dulbecco's Phosphate buffered Saline (DPBS). To prepare samples for SDS-PAGE, cells were lysed in RIPA buffer (50 mM Tris-HCl, pH7.4, 0.9% NaCl, 1% Triton X-100, 0.25% Na-deoxycholate, 1 mM EDTA, 2 mM Na3VO4 and 1× protease inhibitors cocktail) for 15 min on ice. Cell lysates were cleared by centrifugation at 14,000 rpm, 4° C. for 10 min. Protein concentrations of cell lysates were determined by BCA protein assay kit prior to SDS-PAGE. Equal amount of proteins from various cell lysates were resolved on 10% NuPage MES precast gels and transferred to nitrocellulose membranes according to the manufacturer's instructions. […]

Chain of IKKα (Q60680 whole entry): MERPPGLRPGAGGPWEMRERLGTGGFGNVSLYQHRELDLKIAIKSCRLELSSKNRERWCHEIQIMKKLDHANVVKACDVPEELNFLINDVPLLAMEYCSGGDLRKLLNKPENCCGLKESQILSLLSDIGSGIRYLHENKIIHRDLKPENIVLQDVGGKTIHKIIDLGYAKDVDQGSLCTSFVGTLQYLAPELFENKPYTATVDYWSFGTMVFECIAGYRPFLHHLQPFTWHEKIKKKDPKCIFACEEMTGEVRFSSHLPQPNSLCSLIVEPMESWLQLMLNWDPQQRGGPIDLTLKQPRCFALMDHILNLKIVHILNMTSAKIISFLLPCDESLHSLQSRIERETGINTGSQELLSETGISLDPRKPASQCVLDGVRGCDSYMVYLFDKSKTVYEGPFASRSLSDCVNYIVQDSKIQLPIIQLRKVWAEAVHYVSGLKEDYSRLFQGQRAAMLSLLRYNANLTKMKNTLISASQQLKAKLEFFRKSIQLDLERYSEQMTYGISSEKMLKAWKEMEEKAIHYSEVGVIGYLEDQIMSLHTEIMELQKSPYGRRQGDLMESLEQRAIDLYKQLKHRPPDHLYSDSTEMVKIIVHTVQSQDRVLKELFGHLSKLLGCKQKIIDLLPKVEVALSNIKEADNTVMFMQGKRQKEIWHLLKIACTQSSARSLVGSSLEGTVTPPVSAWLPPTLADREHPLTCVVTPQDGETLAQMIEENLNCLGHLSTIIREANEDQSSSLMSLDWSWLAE

Row | SMILES | IC50 (HT-29 (Colon)) [µM] | IC50 (HT-29 (Colon); Homo sapiens, HT-29, 48 h) [µM] | PC-3 colony formation (PC-3 colony formation; 5 μM, 10 μM and 20 μM for 0.5-24 hours) | PC-3 colony formation (PC-3 colony formation; exposure of 6 hr to 20 μM) | phosphorylation of IRAK1 (and its downstream target IκBα) (IRAK1) | kinase activity of IKKα (IKKα) | phosphorylation of IκBα induced by Toll-like receptor ligands (LTA, CpG DNA) (IκBα phosphorylation) | phosphorylation of IκBα induced by Toll-like receptor ligands (LTA, CpG DNA) (IκBα phosphorylation; listed as formula (IIB-A1))
1 | C=CC(=O)C1(C)CCCC2(C)C3=CCC(C)(C=C)C[C@@H]3CC[C@H]12 (stereo in doubt) [NPI-1387, 1-[(1S,4aS,7R)-1,4a,7-Trimethyl-7-vinyl-1,2,3,4,4a,6,7,8,8a,9,10,10a-dodecahydro-1-phenanthrenyl]-2-propen-1-one] | 13 ± 6 | 14 ± 6 | inhibits the colony formation of PC-3 cancer cells in a time-dependent and dose-dependent fashion | completely abolish | inhibits the phosphorylation of IRAK1 | reduces kinase activity of IKKα in a dose-dependent manner |  | 
2 | C=C[C@@]1(C)CCC=C2[C@H]1CC[C@@H]1[C@](C)(C(=O)NC3CCCCC3)CCC[C@@]21C [Formula (IIB-A1), N-Cyclohexylamide Derivative of TTL] |  |  |  |  |  |  | inhibits the phosphorylation of IκBα induced by Toll-like receptor ligands | inhibits the phosphorylation of IκBα induced by LTA and CpG DNA
